From patent US8969387B2, “Pyrrole compounds” (Takeda Pharmaceutical Company Limited, priority 2008, dated 2015)
Structures can show the parent of a compound that is named as a salt.

Tested on: Caspase-3/7 activity in HepG2 cells
Experiment: Caspase-3/7 activity test
Format: cell-based, human
Settings: HepG2, 100 μM, one day; relative to Staurosporine maximum (100%) and no test reagent (0%)
Method: Human liver cancer-derived cell line HepG2 (ATCC No. HB-8065) was passaged using Dulbecco's Modified Eagle medium (DMEM; Invitrogen) containing 10% fetal bovine serum (FBS; TRACE SCIENTIFIC LTD.), 1 mmol/L sodium pyruvate (Invitrogen), 2 mmol/L L-glutamine (Invitrogen), 50 IU/mL penicillin (Invitrogen) and 50 μg/mL streptomycin (Invitrogen) at 5% CO2, 37° C. The test reagent was prepared with DMSO to 10 mM, and further diluted with DMEM medium containing 0.5% FBS, 1 mmol/L sodium pyruvate, 2 mmol/L L-glutamine, 50 IU/mL penicillin and 50 μg/mL streptomycin to a final concentration of DMSO of 0.1%. HepG2 (2×10^4 cells/well) was cultured on a 96 well white plate (Costar) with the test reagent at 5% CO2, 37° C. After culture for one day, the intracellular ATP content was measured using ATPLite™ (PerkinElmer Life Sciences). The results are shown in Table 4 (n23, average value±SD) as a relative value (%) to control (without addition of drug).
The Caspase-3/7 activity in the cells cultured for one day by a method similar to that in Experimental Example 3 was measured using Caspase-Glo 3/7 Assay (Promega). The results are shown in Table 4 (n≧3, average value SD) as relative activity (%) of each reagent based on the maximum value of Caspase-3/7 activity when exposed to Staurosporine (100%), and the activity without addition of a test reagent (0%).

Compound	Caspase-3/7 activity (%, 100 μM)
CNCc1cn(S(=O)(=O)c2cc(C)ccn2)c(-c2cccnc2F)c1F [Example 2, 1-{4-Fluoro-5-(2-fluoropyridin-3-yl)-1-[(4-methylpyridin-2-yl)sulfonyl]-1H-pyrrol-3-yl}-N-methylmethanamine hydrochloride]	−1.1%
CNCc1cn(S(=O)(=O)c2ccc(F)cn2)c(-c2cccnc2F)c1F [Example 3, 1-{4-Fluoro-5-(2-fluoropyridin-3-yl)-1-[(5-fluoropyridin-2-yl)sulfonyl]-1H-pyrrol-3-yl}-N-methylmethanamine hydrochloride]	−0.5%
CNCc1cn(S(=O)(=O)c2cc(OC)ccn2)c(-c2cccnc2F)c1F [Example 4, 1-{4-Fluoro-5-(2-fluoropyridin-3-yl)-1-[(4-methoxypyridin-2-yl)sulfonyl]-1H-pyrrol-3-yl}-N-methylmethanamine hydrochloride]	−0.6%
CNCc1cn(S(=O)(=O)c2cncc(F)c2)c(-c2cccnc2F)c1F [Example 5, 1-{4-Fluoro-5-(2-fluoropyridin-3-yl)-1-[(5-fluoropyridin-3-yl)sulfonyl]-1H-pyrrol-3-yl}-N-methylmethanamine hydrochloride]	0.3%
CNCc1cn(S(=O)(=O)c2ccc(C)nc2)c(-c2cccnc2F)c1F [Example 8, 1-{4-Fluoro-5-(2-fluoropyridin-3-yl)-1-[(6-methylpyridin-3-yl)sulfonyl]-1H-pyrrol-3-yl}-N-methylmethanamine 0.5 fumarate]	2.4%
CNCc1cn(S(=O)(=O)c2ccc(OC)cn2)c(-c2cccnc2F)c1F [Example 10, 1-{4-Fluoro-5-(2-fluoropyridin-3-yl)-1-[(5-methoxypyridin-2-yl)sulfonyl]-1H-pyrrol-3-yl}-N-methylmethanamine hydrochloride]	0.9%
